Measurements reported in patent publication US11358965B2, “EGFR dimer disruptors and use of the same” (THE REGENTS OF THE UNIVERSITY OF MICHIGAN, priority 2018, dated 2022).
Where two headings read alike, the source gives them in different places.

Key:
[1] = test system: cells; experiment: Clonogenic cellular assay; assay type: cell-based
[2] = test system: COLO 205; experiment: NCI 60 cell line screen, COLO 205; assay type: cell-based, human; settings: Colon Cancer
Protocol: (§1) The activity of Compound 8C was tested against 60 different human tumor cell lines at the National Cancer Institute, using the standard NCI 60 screening protocol.

[3] = test system: isogenic 6-Ba/F3 cell types (TKI sensitive and resistant); experiment: Activity in isogenic Ba/F3 cell types
[4] = test system: MDA-MB-468; experiment: NCI 60 cell line screen, MDA-MB-468; assay type: cell-based, human; settings: Breast Cancer
Protocol: as §1

[5] = test system: UACC-257; experiment: NCI 60 cell line screen, UACC-257; assay type: cell-based, human; settings: Melanoma
Protocol: as §1

[6] = test system: UMSCC74B; experiment: UMSCC74B xenografts, oral gavage twice weekly; assay type: in vivo, mouse; settings: 30 mg/kg, vs untreated and cetuximab controls
Protocol: Mouse xenographs of UMSCC74B, a head and neck tumor cell line, were treated with Compound 8C via oral gavage (30 mg/kg body weight, twice weekly).

[7] = Stability in mouse liver microsomes; assay type: in vitro ADME
[8] = test system: UMSCC74B; experiment: UMSCC74B head and neck tumor model, daily for one week; assay type: in vivo
Protocol: Efficacy testing of Compound 8C in UMSCC74B, an EGFR driven, aggressive tumor model of the head and neck. Tumor bearing mice were treated with 30 mg/kg dose daily (Monday-Friday) for one week. This dose was selected based on single dose PK profile (see FIG. 8A). This treatment was safe and produced significant tumor growth delay (see FIG. 10).
Nude mice bearing either UMSCC74B ([…]) were treated with (30 mg/kg, daily for one week) or with vehicle (5% DMSO in PBS). Each group had at least 5 mice. Tumor volume and body weight was recorded 3-4 times a week, and change in the average tumor volume with time is plotted. The average loss in body weight during treatment was less than 10%. Error bar represents standard error of the mean.
For the Compound 8C treatment group, day 0 is defined as the first day of treatment. In vehicle control mice, day 0 was defined as the day when the tumor volume was closest to the mean tumor volume in Compound 8C treatment groups on the day of treatment initiation. To assess whether tumor volume growth rates differed by treatment, mixed effect models were fit with random intercept terms at the mouse levels to account for correlated outcomes over time within a tumor and between 2 tumors within a mouse. Monotherapy elicited a significant reduction in tumor growth rate after one week of dosing (see FIG. 10).

[9] = test system: SK-MEL-5; experiment: NCI 60 cell line screen, SK-MEL-5; assay type: cell-based, human; settings: Melanoma
Protocol: as §1

[10] = Pharmacokinetics in tumor and plasma, NCI-H1975 xenograft mice; assay type: in vivo, nude mice; settings: for half-life: nude, mouse, ip
Protocol: The IC50 and IC90 for PC9-AZR, and HCC827-AZR, range from ˜1.5 to ˜4 μM (see FIG. 7A). It is interesting to note that the peak plasma concentration was 5.4±1.5 μM for 30 minutes. […] Prolonged drug accumulation in tumors despite rapid systemic clearance is ideal for therapeutic use. The data at the 24 hour time point indicate that the agent may be suitable for daily administration. After observing selective accumulation of Compound 8C in tumors injected i.p., it was determined if Compound 8C is orally available. For oral administration, Compound 8C was formulated in 20% tween 80 in PBS (v/v) after brief sonication. Mice received 100 mg/kg by oral gavage. The concentrations of Compound 8C in tumor and plasma samples at 7 hours, 15 hours and 24 hours were determined and are plotted in FIG. 8B.
For intraperitoneal injection Compound 8C was formulated at 10 mg/mL in PBS with 5% DMSO by adjusting the pH to 5.5. For oral administration, a homogenous suspension was prepared in 20% tween 80 upon brief sonication. Initially, a single 100 mg/kg dose of Compound 8C was given i.p. (FIG. 8A) or gavaged into nude mice bearing human NCI-H1975 tumor xenografts (>150 mm3) (FIG. 8B). Mice were euthanized at time 0, 30 minutes, 1 hour, 3 hours, 7 hours, 15 hours, and at 24 hours. Tumor and plasma samples were collected. In case of mice orally gavaged, plasma and tumor samples were collected only at 7 hours, 15 hours and at 24 hours. The concentration of Compound 8C in plasma and tumor was determined and the resulting data are plotted in terms of molar concentration.

## CN1CCC2(CC1)N=C(SCC(=O)Nc1cnc3ccccc3c1)C(c1ccc(Br)cc1)=N2 [Compound 8C, 2-((3-(4-bromophenyl)-8-methyl-1,4,8-triazaspiro[4.5]deca-1,3-dien-2-yl)thio)-N-(quinolin-3-yl)acetamide]
[1]
  IC50 in the clonogenic cellular assay: sub-micromolar
[2]
  Percent Growth: −76.2%
[3]
  activity in each Ba/F3 cell line: active in the nanomolar range
[4]
  Percent Growth: −43.8%
[5]
  Percent Growth: −61.2%
[6]
  tumor volume: significantly reduced tumor volume
[7]
  stability compared to pre lead (C95): approximately 20 times
[8]; 30 mg/kg dose daily (Monday-Friday) for one week
  safety of treatment: safe
[8]; 30 mg/kg, daily for one week
  average loss in body weight during treatment: less than 10%
[8]; 30 mg/kg, daily for one week, vs time-matched control (p=0.013) and overall control (p<0.001)
  tumor growth rates: significantly lower
[9]
  Percent Growth: −96.2%
[10]; 100 mg/kg i.p., single dose, for 30 minutes
  peak plasma concentration: 5.4 ± 1.5 µM
[10]; 100 mg/kg i.p., single dose, for ≥7 hours
  peak concentration achieved in the tumor: 69.7 ± 15.68 µM
[10]; i.p. injection
  tumor accumulation: selectively accumulates in the tumor
[10]; plasma, 100 mg/kg i.p., single dose, read-out: plasma half-life (converted)
  half-life: 7.96 h
[10]; tumor, 100 mg/kg i.p., single dose, read-out: half-life in the tumor
  half-life: > 24 h
